# According to publication PMC8232621, “Antimicrobial Activity of a Library of Thioxanthones and Their Potential as Efflux Pump Inhibitors” (Pharmaceuticals, 2021):
# Key:
# P-gp = system: P-gp; design: method as in PMID 22044878; conditions: cited from earlier work
# E. faecalis B3/101 = test: Synergy with vancomycin (antibiotic MIC in presence of compound); type: cell-based, Enterococcus faecalis
# Text: The referred library of thioxanthones was initially tested for their antimicrobial activity against six bacterial strains: the Gram-negative Escherichia coli ATCC 25922, Pseudomonas aeruginosa ATCC 27853 and Salmonella enterica serovar Typhimurium SL1344 (SE03), with the acrA gene deleted, and the Gram-positive Staphylococcus aureus ATCC 29213, Enterococcus faecalis ATCC 29212 and the methicillin and ofloxacin-resistant clinical isolate S. aureus 272123. For the synergy assay, two clinically relevant isolates were used: the extended-spectrum β-lactamase (ESBL)-producing E. coli SA/2 [23] and the vancomycin-resistant E. faecalis (VRE) B3/101 [23]. The antibiotics used were cefotaxime (CTX) and vancomycin (VAN), respectively.
# The combined effect of the compounds and clinically relevant antimicrobial drugs was evaluated by determining the antibiotic’s MIC in the presence of each compound. […] The antibiotic tested was serially diluted, whereas the concentration of each compound was kept fixed. In the case of compound 12, the concentration used was 8 µg/mL. For all other compounds, the concentration used was 64 µg/mL. Antibiotic MICs were determined as described above.
# P-glycoprotein (P-gp) = test: Flow cytometry analysis of P-glycoprotein expression in Caco-2 cells (UIC2-PE antibody); type: cell-based, human; conditions: 20 µM, 24 h
# Method: However, the ability of compounds 9–17 to interfere with the fluorescence of the UIC2-PE antibody was assessed first. For this purpose, Caco-2 cells were incubated for 24 h, in the presence or absence of thioxanthone derivatives (20 μM), and subsequently analysed, by flow cytometry, as described for the P-gp expression assay. A remarkable increase in the intracellular fluorescence of cells exposed to compounds 10–13 and 15–17 was observed, making it impossible to assess the effect of these thioxanthone derivatives on P-gp expression. In fact, compounds 15–17 had previously been reported as fluorescent compounds [15] and this characteristic limited some of the studies reported herein. […] Briefly, Caco-2 cells were seeded in 24-well plates at a density of 60,000 cells/cm^2 and exposed, three days after seeding, to a non-cytotoxic concentration of the tested compounds (20 µM). […] The cells were then washed twice with HBSS (+/+), centrifuged (300 g for 5 min, at 4 °C) and kept on ice until analysis. […] The parameter used for comparison was the mean fluorescence intensity (MFI), calculated as a percentage of control cells (0 μM). The cells autofluorescence (unlabelled cells with or without exposure to the tested compounds) was also evaluated to eliminate its potential contribution to the analysed fluorescence signals. […]
# Caco-2 cells = test: Cytotoxicity in Caco-2 cells, sulforhodamine B (SRB) binding assay; type: cell-based, human; conditions: 24 h after exposure
# Method: Caco-2 cells were routinely cultured in 75 cm^2 flasks using DMEM with 4.5 g/L glucose supplemented with 10% FBS, 1% NEAA and 1% antibiotic. Cells were maintained at 37 °C, in a 5% CO2 and 95% air atmosphere, and the cell culture medium was changed every 2−3 days. Cultures were passaged weekly by trypsinization (0.25% trypsin/1 mM EDTA). In all experiments, the cells were seeded at a density of 60,000 cells/cm^2 and used three days after seeding, when confluence was reached. The cells used in all experiments were taken between the 55th and 64th passages.
# The compounds’ (0−20 μM) cytotoxicity was evaluated by the neutral red (NR) uptake and Sulforhodamine B (SRB) binding assays, 24 h after exposure. Caco-2 cells were seeded onto 96-well plates at a density of 60,000 cells/cm^2 and exposed, after reaching confluence (three days after seeding), to the compounds (0–20 μM), in a fresh cell culture medium. Triton™ X-100 (0.1%) was used as a positive control.
# The SRB binding assay is based on the pH-dependent binding of SRB to basic amino acids of cellular proteins under mild acidic conditions. […] The bounded SRB was then extracted with a Tris base solution (10 mM, pH 10.5) and the absorbance was measured, at 540 nm, in a multi-well plate reader (PowerWaveX BioTek Instruments, VT, USA). […]
smiles,measurement,setting,value
CCCOc1ccc(NCCN(CC)CC)c2c(=O)c3ccccc3sc12 [Compound 2],type of P-gp inhibition,P-gp,competitive inhibitor
"CCCOc1ccc(N2CCNC(=O)C2)c2c(=O)c3ccccc3sc12 [Compound 9, 4-(9-Oxo-4-propoxy-9H-thioxanthen-1-yl)piperazin-2-one]",decrease of the MIC of VAN,E. faecalis B3/101,16 fold
same,P-gp expression levels (control cells 100%),P-glycoprotein (P-gp),no significant differences
"CCCOc1ccc(Br)c2c(=O)c3ccccc3sc12 [Compound 14, 1-Bromo-4-propoxy-9H-thioxanthen-9-one]",P-gp expression levels (control cells 100%),P-glycoprotein (P-gp),83%
CCCOc1ccc2nc(NCc3ccccc3Cl)nc3c2c1Sc1ccccc1-3 [Compound 17],SRB binding vs control cells,Caco-2 cells; 10 µM,no significant differences
same,SRB binding (relative to control cells),Caco-2 cells; 20 µM,105.8%
